# Experiments:
# Assay in all cases: relative viability (nuclei count vs DMSO), 5 days (fraction); higher = more cells survive
# [1] = compound: CCC1=CN=CN=C1N2CCN(CC2)CC3=NC4=C(N3)C=C(C=C4)C(F)(F)F + Nc1nc2[nH]cc(CCc3ccc(C(=O)N[C@@H](CCC(=O)O)C(=O)O)cc3)c2c(=O)[nH]1 [Pemetrexed] (partner 0.2 µM)
# In short: (§1)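 Lung cancer cell lines, seeded in 1536-well plates, were treated the following day by pin tool with a single drug or with five library-drug doses (not always all listed) in √10 steps on top of a fixed anchor-drug dose. Cells were fixed and nuclei stained in one step after 5 days, and nuclei were counted. Relative viability is the nuclei count for treated wells divided by that for vehicle wells, reported as medians of duplicate plates.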
# [2] = compound: CCn1c(-c2nonc2N)nc2cnc(Oc3cccc(NC(=O)c4ccc(OCCN5CCOCC5)cc4)c3)cc21 + COc1cc2c(Oc3ccc(NC(=O)C4(C(=O)Nc5ccc(F)cc5)CC4)cc3F)ccnc2cc1OCCCN1CCOCC1 [Foretinib] (partner 0.25 µM)
# In short: as §1
# [3] = compound: CCn1c(-c2nonc2N)nc2cnc(Oc3cccc(NC(=O)c4ccc(OCCN5CCOCC5)cc4)c3)cc21 + CS(=O)(=O)N1CCN(Cc2cc3nc(-c4cccc5[nH]ncc45)nc(N4CCOCC4)c3s2)CC1 [Pictilisib] (partner 1 µM)
# In short: as §1
# Mirin + Alpelisib = compound: N=C1NC(=O)/C(=C/c2ccc(O)cc2)S1 [Mirin] + Cc1nc(NC(=O)N2CCC[C@H]2C(N)=O)sc1-c1ccnc(C(C)(C)C(F)(F)F)c1 [Alpelisib] (partner 2 µM)
# In short: as §1
Cell Line,relative viability ([1]; first compound 0.04 µM),relative viability ([1]; first compound 0.1265 µM),relative viability ([1]; first compound 0.4 µM),relative viability ([1]; first compound 1.265 µM),relative viability ([1]; first compound 4 µM),relative viability ([2]; first compound 0.04 µM),relative viability ([2]; first compound 0.1265 µM),relative viability ([2]; first compound 0.4 µM),relative viability ([2]; first compound 1.265 µM),relative viability ([2]; first compound 4 µM),relative viability ([3]; first compound 0.04 µM),relative viability ([3]; first compound 0.1265 µM),relative viability ([3]; first compound 0.4 µM),relative viability ([3]; first compound 1.265 µM),relative viability ([3]; first compound 4 µM),relative viability (Mirin + Alpelisib; first compound 0.25 µM),relative viability (Mirin + Alpelisib; first compound 0.7906 µM),relative viability (Mirin + Alpelisib; first compound 2.5 µM),relative viability (Mirin + Alpelisib; first compound 7.906 µM),relative viability (Mirin + Alpelisib; first compound 25 µM)
LU99A,0.187,0.169,0.178,0.177,0.248,0.872,0.886,0.853,0.493,0.476,0.392,0.322,0.192,0.317,0.214,0.541,0.518,0.498,0.376,0.352
LXF-289,0.938,0.777,0.915,0.977,0.788,1.06,1.02,0.982,0.936,0.882,0.923,0.761,0.539,0.56,0.516,1.03,1.05,1.06,1.13,1.03
NCI-H23,0.579,0.755,0.615,0.646,0.558,1.05,0.909,0.978,0.853,0.862,0.721,0.613,,0.433,0.343,0.655,,0.723,0.642,0.442
NCI-H322M,0.62,0.606,0.603,0.539,0.629,1.51,1.24,1.22,0.71,0.8,0.579,0.541,0.581,0.693,0.591,0.783,0.844,0.734,0.829,0.844
NCI-H358,0.159,0.193,0.176,0.151,0.167,0.886,0.653,0.775,0.396,0.44,0.339,0.401,0.316,0.384,0.216,0.822,0.876,0.943,0.723,0.461
NCI-H441,0.231,0.274,0.274,0.204,0.265,1.12,1.04,,0.859,0.79,0.582,0.541,0.438,0.386,0.376,0.537,1.11,0.631,0.536,0.507
NCI-H460,0.0519,0.0632,0.0612,0.0661,0.0611,1.06,0.902,0.978,0.426,0.16,0.462,0.404,0.207,0.122,0.182,0.511,0.424,0.559,0.515,0.236
NCI-H520,0.667,0.719,0.762,0.576,0.602,0.962,0.994,0.755,0.603,0.429,0.326,0.31,0.256,0.265,0.182,1.01,0.834,0.883,0.665,0.522
NCI-H596,0.52,0.506,0.483,0.438,0.444,0.961,0.873,0.814,0.742,0.767,0.399,0.416,0.37,0.359,0.389,0.438,0.45,0.481,0.513,0.361
NCI-H647,0.165,0.173,0.166,0.159,0.135,1.27,1.09,0.913,0.668,0.715,0.614,0.307,0.249,0.207,0.276,1.24,1.36,1.15,1.22,0.657
NCI-H650,0.806,0.866,0.99,0.837,0.973,1.12,0.774,0.531,0.366,0.438,1.09,0.809,0.594,0.484,0.542,1.04,,1.09,,1.1
NCI-H661,0.908,0.973,0.941,0.921,0.921,0.966,0.846,0.925,0.801,0.522,0.415,0.457,0.33,0.202,0.288,0.657,0.554,0.612,0.323,0.602
NCI-H838,0.248,0.239,0.247,0.244,0.225,0.771,0.7,0.562,0.378,0.371,0.397,0.292,0.231,0.286,0.256,0.966,1,0.961,1.03,0.965
NCI-H1355,1.07,0.928,0.996,0.996,1.08,1.05,0.948,1.03,0.955,1,0.446,0.418,0.338,0.32,0.277,0.858,0.864,0.754,0.915,0.727
NCI-H1395,0.862,0.754,0.896,,0.845,1.03,0.95,0.975,0.501,0.561,0.795,0.508,0.491,0.384,0.536,1.04,,1.08,0.873,0.943
NCI-H1437,0.296,0.295,0.306,0.35,0.224,1.26,1.31,1.23,1.06,0.865,0.383,0.39,0.257,0.443,0.283,0.979,0.884,0.832,0.705,0.474

# From the supplement of paper PMC10307832
